Experiment [1] has as its system early breast cancer patients. The note with it: 5 years of treatment, versus tamoxifen, hormone receptor-positive women; cited from earlier work.
Experiment [2] concerns first line metastatic breast cancer patients.
Text: The total number of patients in this trial was 1258, 1164 pretreatment serum samples were available for analysis. We obtained valid VeriStrat test results for 1046 of these patients, of which 961 were classified as VeriStrat Good, 80 were VeriStrat Poor, and 5 were VeriStrat Indeterminate (Undefined) (patients for whom 3 replicate spectra produced discrepant results); 117 samples were not evaluable due to hemolysis and we could not assign a VeriStrat label to one patient due to data inconsistencies between available samples.
The classifier assigned a class label to the samples, either “Good” or “Poor” or in a few instances “undefined.” The class labels were assigned using a K-nearest neighbor (KNN) scoring algorithm based on a comparison of the spectra, after preprocessing and calculation of integrated intensity values at selected features in the spectra, with a training set of class-labeled spectra from other cancer patients.
In our retrospective analysis of the EGF30008 study, we obtained serum samples from the patients participating in the study, subjected them to our VeriStrat test, and the samples were assigned class labels of Good or Poor, depending on the outcome of the KNN algorithm in the classifier.
A Cox Proportional Hazard Model analysis was carried out including VeriStrat classification, treatment arm, and an interaction term between the two.
For experiment [3], the system named is advanced breast cancer patients. The conditions noted are these: letrozole versus anastrozole; cited from earlier work.

The structures appear in SMILES notation. Where two headings read alike, the source gives them in different places.

Regarding `CC(C)(C#N)c1cc(Cn2cncn2)cc(C(C)(C)C#N)c1` [anastrozole], the “Reduction in recurrence rates” value in experiment [1] is reported as 26%.

For the compound `CS(=O)(=O)CCNCc1ccc(-c2ccc3ncnc(Nc4ccc(OCc5cccc(F)c5)c(Cl)c4)c3c2)o1` [lapatinib], the “Patient outcome on addition of lapatinib to letrozole” value in experiment [2] (VeriStrat Good group) is “little or no clinical benefit”; in experiment [2] (VeriStrat Poor group), “significantly improves patient outcome”.

As to `N#Cc1ccc(C(c2ccc(C#N)cc2)n2cncn2)cc1` [letrozole], the “HR for PFS, VeriStrat Good vs VeriStrat Poor within the treatment arm (95% CI)” value in experiment [2] (HER2+ patients) is recorded as 0.29; in experiment [2] (HER2+ patients, listed as Let only) it was 0.29 (0.09-0.98); in experiment [2] (HER2- patients, listed as Let only), 0.37 (0.21-0.64); in experiment [2] (HER2- patients, listed as letrozole+placebo), 0.37; in experiment [2] (overall population, listed as Let only), 0.36 (0.23-0.58); in experiment [2] (overall population, listed as letrozole+placebo), 0.36. For the same compound, the “Median PFS” value in experiment [2] (HER2+ patients, VeriStrat Good) was found to be 3.0 months; in experiment [2] (HER2+ patients, VeriStrat Poor), 2.3 months; in experiment [2] (HER2- patients, VeriStrat Good), 13.6 months; in experiment [2] (HER2- patients, VeriStrat Poor), 3.1 months; in experiment [2] (overall population, VeriStrat Good patients), 10.8 months; in experiment [2] (overall population, VeriStrat Poor patients), 2.8 months. In addition, the “Overall response rate (ORR)” value in experiment [3] is on record as “significantly superior to anastrozole”.

The values are drawn from patent US9254120B2, “Method for predicting breast cancer patient response to combination therapy” (Biodesix, Inc., priority 2011, dated 2016).
